Common to all, as to format: in vivo
In series [1] the test system is Echinochloa crus-galli var. crus-galli. Nature of the series: Test Example 5: herbicidal effect by foliage application, plastic box (symbol H). The following applies: 320 g/ha, 3 weeks after application. In a few lines:
(§1)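 Effect is rated 3 weeks after a foliar spray of water-diluted emulsion concentrate at a predetermined herbicide amount. Plants had grown 14 days in a 25° C. to 30° C. greenhouse from seed in sterilized diluvial soil.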

Series [2] concerns Alopecurus myosuroides. Nature of the series: Test Example 4: herbicidal effect by soil treatment (symbol J). Conditions: application herbicide amount 320 g/ha. In a few lines: (§2)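 Seeds were sown in sterilized diluvial soil, covered with about 1.5 cm of soil, and the soil surface was sprayed with a water-diluted emulsion of the compound at a predetermined rate. Plants grew in a greenhouse at 25° C. to 30° C.; effects were scored visually 3 weeks after application.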

In the next series the test system is Lolium multiflorum Lam. Put plainly: Test Example 4: herbicidal effect by soil treatment (symbol K). Conditions: application herbicide amount 320 g/ha. In a few lines: as §2
A further series has as its system Digitaria ciliaris. Nature of the series: Test Example 4: herbicidal effect by soil treatment (symbol F). Conditions: application herbicide amount 320 g/ha. In outline:
as §2

In series [3] the test system is Echinochloa crus-galli var. crus-galli. Put plainly: Test Example 3: herbicidal effect by foliage application, Wagner pot (symbol H). Conditions: application herbicide amount 320 g/ha; for H (Echinochloa crus-galli var. crus-galli) herbicidal effect grade: Table 24. In outline:
(§3)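 Scoring took place 3 weeks after application, using fixed criteria. Plants had been raised from seed for 14 days at 25 to 30 °C in submerged alluvial soil before a diluted emulsion of the test compound was sprayed uniformly on the leaves.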

The next series deals with Leptochloa chinensis. Nature of the series: Test Example 3: herbicidal effect by foliage application, Wagner pot (symbol D). The following applies: application herbicide amount 320 g/ha; for D (Leptochloa chinensis) herbicidal effect grade: Table 24. In a few lines: as §3
A further series deals with Veronica persica. Nature of the series: Test Example 4: herbicidal effect by soil treatment (symbol R). The following applies: application herbicide amount 320 g/ha. In outline:
as §2

For another series, the system named is Scirpus juncoides. Nature of the series: Test Example 2: herbicidal activity, application during weed generation in submerged conditions (symbol B). Conditions: Table 23; application herbicide amount 320 g/ha; grade 0-5 by criteria of Test Example 1. In a few lines: (§4)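 Read-out: herbicidal effect on each species rated on a visual scale 3 weeks after treatment. Plants were raised together from seed in flooded alluvial soil (4 cm water) at 25° C. to 30° C. and treated at one to two leaves by water-surface application of diluted emulsion.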

A further series deals with rice. Put plainly: Test Example 4: effect on crop by soil treatment (symbol b). The following applies: application herbicide amount 320 g/ha. In outline:
(§5)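 Crop seeds, among them rice, wheat, beet and rapeseed, were sown in sterilized diluvial soil and covered with about 1.5 cm of soil. Boxes were kept in a greenhouse at 25° C. to 30° C. for plant growth.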

In the next series the test system is Monochoria vaginalis. Put plainly: Test Example 2: herbicidal activity, application during weed generation in submerged conditions (symbol C). Conditions: Table 23; application herbicide amount 320 g/ha; grade 0-5 by criteria of Test Example 1. In outline: as §4
The subject of a further series is wheat. Put plainly: Test Example 4: effect on crop by soil treatment (symbol e). The following applies: application herbicide amount 320 g/ha. In outline:
as §5

Series [4] has as its system Alopecurus myosuroides. Nature of the series: Test Example 5: herbicidal effect by foliage application, plastic box (symbol J). Conditions: 320 g/ha, 3 weeks after application. In a few lines:
as §1

For a further series, the system named is Avena fatua. Nature of the series: Test Example 4: herbicidal effect by soil treatment (symbol I). The following applies: application herbicide amount 320 g/ha. In a few lines:
as §2

Series [5] relates to Stellaria media. Put plainly: Test Example 5: herbicidal effect by foliage application, plastic box (symbol P). Conditions: 320 g/ha, 3 weeks after application. In outline:
as §1

The subject of a further series is rice plant. Nature of the series: Test Example 5: effect on crop by foliage application, plastic box (symbol b). Conditions: 320 g/ha, 3 weeks after application. In a few lines: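 Greenhouse culture at 25° C. to 30° C. followed spot-like sowing into sterilized diluvial soil, with seed covered by roughly 1.5 cm of soil.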
The subject of the next series is Amaranthus retroflexus. Nature of the series: Test Example 5: herbicidal effect by foliage application, plastic box (symbol N). The following applies: 320 g/ha, 3 weeks after application. In a few lines: as §1
In series [6] the test system is Echinochloa oryzacola Vasing. Nature of the series: Test Example 2: herbicidal activity, application during weed generation in submerged conditions (symbol A). The following applies: Table 23; application herbicide amount 320 g/ha; grade 0-5 by criteria of Test Example 1. In outline: as §4
The test system of series [7] is Stellaria media. Nature of the series: Test Example 4: herbicidal effect by soil treatment (symbol P). Conditions: application herbicide amount 320 g/ha. In a few lines: as §2
In the next series the test system is Setaria viridis. Put plainly: Test Example 4: herbicidal effect by soil treatment (symbol G). The following applies: application herbicide amount 320 g/ha. In outline:
as §2

The test system of another series is Chenopodium album. Put plainly: Test Example 5: herbicidal effect by foliage application, plastic box (symbol O). The following applies: 320 g/ha, 3 weeks after application. In a few lines:
as §1

Each structure is given as a SMILES string.

As for `COc1cc(Br)cc(C)c1C1=C(O)CC(CC(=O)C2CC2)C1=O` (racemic) [14-001], the “H: Echinochloa crus-galli var. crus-galli, herbicidal effect grade” value in series [1] is 5 (Herbicidal ratio of 90% or more (almost completely withered)). Also, the “J: Alopecurus myosuroides, herbicidal effect grade” value (“J: Alopecurus myosuroides” for short) with Alopecurus myosuroides [2] and with Alopecurus myosuroides [4] was 5 (Herbicidal ratio of 90% or more (almost completely withered)) in each case. Moreover, the “K: Lolium multiflorum Lam., herbicidal effect grade” value in the series with Lolium multiflorum Lam. is listed as 5 (Herbicidal ratio of 90% or more (almost completely withered)). For the same compound, the “F: Digitaria ciliaris, herbicidal effect grade” value with Digitaria ciliaris is listed as 5 (Herbicidal ratio of 90% or more (almost completely withered)). Moreover, the “H (Echinochloa crus-galli var. crus-galli) herbicidal effect grade” value in [3] is reported as 5 (Herbicidal ratio of 90% or more (almost completely withered)). The “D (Leptochloa chinensis) herbicidal effect grade” value in the series with Leptochloa chinensis is 5 (Herbicidal ratio of 90% or more (almost completely withered)). Also, the “R: Veronica persica, herbicidal effect grade” value in the series with Veronica persica is 0 (Herbicidal ratio of 5% or lower (almost no effect)). Besides, the “Herbicidal effect grade, B: Scirpus juncoides” value (“Herbicidal effect grade, B” below) in the series on Scirpus juncoides is recorded as 0 (Herbicidal ratio of 5% or lower (almost no effect)). Besides, the “b: directly sowed rice plant, effect on crop grade” value (“b: directly sowed rice plant” below) in the series on rice and in the series on rice plant was 5 (Herbicidal ratio of 90% or more (almost completely withered)) throughout. Also, the “Herbicidal effect grade, C: Monochoria vaginalis” value (“Herbicidal effect grade, C” below) with Monochoria vaginalis was 1 (Herbicidal ratio of 5% or higher and lower than 20%). The “e: wheat, effect on crop grade” value with wheat was 0 (Herbicidal ratio of 5% or lower (almost no effect)). Further, the “I: Avena fatua, herbicidal effect grade” value in the series on Avena fatua is given as 5 (Herbicidal ratio of 90% or more (almost completely withered)). Also, the “P: Stellaria media, herbicidal effect grade” value (from here on “P: Stellaria media”) in the series on Stellaria media [5] and in the series on Stellaria media [7] was 0 (Herbicidal ratio of 5% or lower (almost no effect)) throughout. In the series on Amaranthus retroflexus, the “N: Amaranthus retroflexus, herbicidal effect grade” value (“N: Amaranthus retroflexus” for short) is recorded as 0 (Herbicidal ratio of 5% or lower (almost no effect)). Moreover, in [6], the “Herbicidal effect grade, A: Echinochloa oryzacola Vasing.” value is on record as 5 (Herbicidal ratio of 90% or more (almost completely withered)). For the same compound, in the series with Setaria viridis, the “G: Setaria viridis, herbicidal effect grade” value is 5 (Herbicidal ratio of 90% or more (almost completely withered)). In addition, the “O: Chenopodium album, herbicidal effect grade” value (“O: Chenopodium album” below) with Chenopodium album was 0 (Herbicidal ratio of 5% or lower (almost no effect)).

As to `CCC(=O)CC1CC(O)=C(c2c(C)cc(Br)cc2OC)C1=O` (racemic) [14-002], the “H: Echinochloa crus-galli var. crus-galli, herbicidal effect grade” value in [1] is reported as 5 (Herbicidal ratio of 90% or more (almost completely withered)). For the same compound, the “J: Alopecurus myosuroides” value was 4 (Herbicidal ratio of 70% or higher and lower than 90%) in the series with Alopecurus myosuroides [2]; 5 (Herbicidal ratio of 90% or more (almost completely withered)) in the series on Alopecurus myosuroides [4]. The “K: Lolium multiflorum Lam., herbicidal effect grade” value with Lolium multiflorum Lam. is listed as 5 (Herbicidal ratio of 90% or more (almost completely withered)). Moreover, the “F: Digitaria ciliaris, herbicidal effect grade” value in the series with Digitaria ciliaris is 5 (Herbicidal ratio of 90% or more (almost completely withered)). Moreover, the “H (Echinochloa crus-galli var. crus-galli) herbicidal effect grade” value in series [3] is given as 5 (Herbicidal ratio of 90% or more (almost completely withered)). For the same compound, the “D (Leptochloa chinensis) herbicidal effect grade” value in the series with Leptochloa chinensis is 5 (Herbicidal ratio of 90% or more (almost completely withered)). Moreover, in the series on Veronica persica, the “R: Veronica persica, herbicidal effect grade” value was 0 (Herbicidal ratio of 5% or lower (almost no effect)). Also, in the series with Scirpus juncoides, the “Herbicidal effect grade, B” value is given as 0 (Herbicidal ratio of 5% or lower (almost no effect)). Moreover, the “b: directly sowed rice plant” value with rice was 5 (Herbicidal ratio of 90% or more (almost completely withered)); in the series on rice plant, 4 (Herbicidal ratio of 70% or higher and lower than 90%). In addition, the “Herbicidal effect grade, C” value in the series with Monochoria vaginalis was 0 (Herbicidal ratio of 5% or lower (almost no effect)). Besides, in the series on wheat, the “e: wheat, effect on crop grade” value was 3 (Herbicidal ratio of 40% or higher and lower than 70%). Besides, the “I: Avena fatua, herbicidal effect grade” value in the series on Avena fatua was 0 (Herbicidal ratio of 5% or lower (almost no effect)). Moreover, the “P: Stellaria media” value in the series on Stellaria media [5] and in the series with Stellaria media [7] was 0 (Herbicidal ratio of 5% or lower (almost no effect)) in each case. Also, the “N: Amaranthus retroflexus” value with Amaranthus retroflexus is on record as 0 (Herbicidal ratio of 5% or lower (almost no effect)). In addition, in series [6], the “Herbicidal effect grade, A: Echinochloa oryzacola Vasing.” value is 5 (Herbicidal ratio of 90% or more (almost completely withered)). For the same compound, the “G: Setaria viridis, herbicidal effect grade” value in the series with Setaria viridis was 5 (Herbicidal ratio of 90% or more (almost completely withered)). Besides, the “O: Chenopodium album” value with Chenopodium album is listed as 0 (Herbicidal ratio of 5% or lower (almost no effect)).

As for `CON=C(C)CC1CC(OS(C)(=O)=O)=C(c2c(C)cc(C)cc2C)C1=O` (stereo not drawn) [1-006], in [1], the “H: Echinochloa crus-galli var. crus-galli, herbicidal effect grade” value is 5 (Herbicidal ratio of 90% or more (almost completely withered)). Moreover, the “J (Alopecurus myosuroides) herbicidal effect grade” value in the series with Alopecurus myosuroides [2] is 4 (Herbicidal ratio of 70% or higher and lower than 90%). Besides, in the series with Lolium multiflorum Lam., the “K (Lolium multiflorum Lam.) herbicidal effect grade” value was 5 (Herbicidal ratio of 90% or more (almost completely withered)). Moreover, the “F (Digitaria ciliaris) herbicidal effect grade” value with Digitaria ciliaris is 5 (Herbicidal ratio of 90% or more (almost completely withered)). In series [3], the “herbicidal effect on H (Echinochloa crus-galli var. crus-galli), grade 0-5” value is given as 5 (Herbicidal ratio of 90% or more (almost completely withered)). In addition, the “herbicidal effect on D (Leptochloa chinensis), grade 0-5” value in the series with Leptochloa chinensis is 5 (Herbicidal ratio of 90% or more (almost completely withered)). For the same compound, in the series on Veronica persica, the “R (Veronica persica) herbicidal effect grade” value is reported as 0 (Herbicidal ratio of 5% or lower (almost no effect)). Besides, the “Herbicidal effect grade, B” value with Scirpus juncoides was 3 (Herbicidal ratio of 40% or higher and lower than 70%). In the series with rice, the “b (directly sowed rice plant) effect on crop grade” value is listed as 5 (Herbicidal ratio of 90% or more (almost completely withered)). The “Herbicidal effect grade, C” value in the series with Monochoria vaginalis was 3 (Herbicidal ratio of 40% or higher and lower than 70%). Moreover, the “e (wheat) effect on crop grade” value in the series on wheat is listed as 0 (Herbicidal ratio of 5% or lower (almost no effect)). Moreover, the “J: Alopecurus myosuroides” value in the series on Alopecurus myosuroides [4] is 5 (Herbicidal ratio of 90% or more (almost completely withered)). Besides, the “I (Avena fatua) herbicidal effect grade” value in the series on Avena fatua is 3 (Herbicidal ratio of 40% or higher and lower than 70%). Further, the “P: Stellaria media” value in the series on Stellaria media [5] is reported as 0 (Herbicidal ratio of 5% or lower (almost no effect)). For the same compound, the “b: directly sowed rice plant” value in the series with rice plant is reported as 5 (Herbicidal ratio of 90% or more (almost completely withered)). Besides, the “N: Amaranthus retroflexus” value in the series on Amaranthus retroflexus was 3 (Herbicidal ratio of 40% or higher and lower than 70%). Also, the “Herbicidal effect grade, A: Echinochloa oryzacola Vasing.” value in series [6] is recorded as 5 (Herbicidal ratio of 90% or more (almost completely withered)). Also, the “P (Stellaria media) herbicidal effect grade” value in the series on Stellaria media [7] is recorded as 0 (Herbicidal ratio of 5% or lower (almost no effect)). In addition, the “G (Setaria viridis) herbicidal effect grade” value in the series on Setaria viridis is 4 (Herbicidal ratio of 70% or higher and lower than 90%). In addition, the “O: Chenopodium album” value in the series with Chenopodium album was 0 (Herbicidal ratio of 5% or lower (almost no effect)).

The values above are taken from US11000033B2, “Ketone or oxime compound, and herbicide” (NISSAN CHEMICAL CORPORATION, priority 2014, dated 2021).
